Assay results reported in PubChem BioAssay AID2060501 (Molecular Pharmacology Branch, DTP, NCI, 2025).

System: 282377-053-R-J1-PDC complex spheroids, viability
Test: Anticancer human tumor 282377-053-R-J1-PDC patient-derived colon adenocarcinoma cell line growth inhibition [GQUAD]
Conditions: for IC50: curve of first compound; for viability, T/C: stronger effect = lower value
How it was run: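 Tumor cells were grown as complex spheroids with HUVEC endothelial cells and mesenchymal stem cells as stroma. G-quadruplex stabilizers were combined with targeted agents over half-log dilutions from near the clinical Cmax, or from 10 microM.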

[1] = second compound 0.0316 µM, first compound 0.0316 µM
[2] = second compound 0.0316 µM, first compound 0.1 µM
[3] = second compound 0.0316 µM, first compound 0.316 µM
[4] = second compound 0.0316 µM, first compound 1 µM
[5] = second compound 0.0316 µM, first compound 3.16 µM
[6] = second compound 0.0316 µM, first compound 10 µM
[7] = second compound 0.1 µM, first compound 0.0316 µM
[8] = second compound 0.1 µM, first compound 0.1 µM
[9] = second compound 0.1 µM, first compound 0.316 µM
[10] = second compound 0.1 µM, first compound 1 µM
[11] = second compound 0.1 µM, first compound 3.16 µM
[12] = second compound 0.1 µM, first compound 10 µM
[13] = second compound 0.316 µM, first compound 0.0316 µM
[14] = second compound 0.316 µM, first compound 0.1 µM
[15] = second compound 0.316 µM, first compound 0.316 µM
[16] = second compound 0.316 µM, first compound 1 µM
[17] = second compound 0.316 µM, first compound 3.16 µM
[18] = second compound 0.316 µM, first compound 10 µM
[19] = second compound 1 µM, first compound 0.0316 µM
[20] = second compound 1 µM, first compound 0.1 µM
[21] = second compound 1 µM, first compound 0.316 µM
[22] = second compound 1 µM, first compound 1 µM
[23] = second compound 1 µM, first compound 3.16 µM
[24] = second compound 1 µM, first compound 10 µM
[25] = second compound 3.16 µM, first compound 0.0316 µM
[26] = second compound 3.16 µM, first compound 0.1 µM
[27] = second compound 3.16 µM, first compound 0.316 µM
[28] = second compound 3.16 µM, first compound 1 µM
[29] = second compound 3.16 µM, first compound 3.16 µM
[30] = second compound 3.16 µM, first compound 10 µM
[31] = second compound 10 µM, first compound 0.0316 µM
[32] = second compound 10 µM, first compound 0.1 µM
[33] = second compound 10 µM, first compound 0.316 µM
[34] = second compound 10 µM, first compound 1 µM
[35] = second compound 10 µM, first compound 3.16 µM
[36] = second compound 10 µM, first compound 10 µM
[37] = second compound 0.0316 µM, first compound 0.000999 µM
[38] = second compound 0.0316 µM, first compound 0.00316 µM
[39] = second compound 0.0316 µM, first compound 0.00999 µM
[40] = second compound 0.0316 µM, first compound 0.0999 µM
[41] = second compound 0.1 µM, first compound 0.000999 µM
[42] = second compound 0.1 µM, first compound 0.00316 µM
[43] = second compound 0.1 µM, first compound 0.00999 µM
[44] = second compound 0.1 µM, first compound 0.0999 µM
[45] = second compound 0.316 µM, first compound 0.000999 µM
[46] = second compound 0.316 µM, first compound 0.00316 µM
[47] = second compound 0.316 µM, first compound 0.00999 µM
[48] = second compound 0.316 µM, first compound 0.0999 µM
[49] = second compound 1 µM, first compound 0.000999 µM
[50] = second compound 1 µM, first compound 0.00316 µM
[51] = second compound 1 µM, first compound 0.00999 µM
[52] = second compound 1 µM, first compound 0.0999 µM
[53] = second compound 3.16 µM, first compound 0.000999 µM
[54] = second compound 3.16 µM, first compound 0.00316 µM
[55] = second compound 3.16 µM, first compound 0.00999 µM
[56] = second compound 3.16 µM, first compound 0.0999 µM
[57] = second compound 10 µM, first compound 0.000999 µM
[58] = second compound 10 µM, first compound 0.00316 µM
[59] = second compound 10 µM, first compound 0.00999 µM
[60] = second compound 10 µM, first compound 0.0999 µM
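Also: spheroids exposed to compounds for 7 days before readout.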
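For viability, T/C in this document: percent of vehicle DMSO control viability with 100% = untreated-like growth.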

With `CC1COCCN1c1cc(C2(S(C)(=N)=O)CC2)nc(-c2ccnc3[nH]ccc23)n1` (stereo not drawn) + Cc1[nH]c2ccc(F)cc2c1-c1nc2c3cccnc3c3ncccc3c2[nH]1 the IC50 (second compound 0.0316 µM) was greater than 10000 nM, the IC50 (second compound 0.1 µM) was 8740 nM and the IC50 (second compound 0.316 µM) was greater than 10000 nM. It also gave an IC50 (second compound 1 µM) of 4980 nM, an IC50 (second compound 3.16 µM) of 822 nM and an IC50 (second compound 10 µM) of less than 31.6 nM. The viability, T/C [1] was 85.5%, the viability, T/C [2] was 83.7% and the viability, T/C [3] was 101%. It also gave a viability, T/C [4] of 81.8%, a viability, T/C [5] of 78.5% and a viability, T/C [6] of 55.6%. It also gave a viability, T/C [7] of 90%, a viability, T/C [8] of 91.8% and a viability, T/C [9] of 82%. It also gave a viability, T/C [10] of 94.8%, a viability, T/C [11] of 61.8% and a viability, T/C [12] of 48.5%. The viability, T/C [13] was 94.5%, the viability, T/C [14] was 97.3% and the viability, T/C [15] was 65.4%. The viability, T/C [16] was 69.5%, the viability, T/C [17] was 84.5% and the viability, T/C [18] was 49.6%. For the same compound, the viability, T/C [19] was 100%, the viability, T/C [20] was 81.4% and the viability, T/C [21] was 87.3%. For the same compound, the viability, T/C [22] was 86.2%, the viability, T/C [23] was 57.7% and the viability, T/C [24] was 38.1%. The viability, T/C [25] was 65.2%, the viability, T/C [26] was 71% and the viability, T/C [27] was 56.2%. The viability, T/C [28] was 47.8%, the viability, T/C [29] was 31.9% and the viability, T/C [30] was 10.4%. It also gave a viability, T/C [31] of 41.6%, a viability, T/C [32] of 41% and a viability, T/C [33] of 49.8%. The viability, T/C [34] was 29.5%, the viability, T/C [35] was 18.1% and the viability, T/C [36] was 6.17%.
In the case of `CCc1c2c(nc3ccc(O)cc13)-c1cc3c(c(=O)n1C2)COC(=O)[C@]3(O)CC` + Cc1[nH]c2ccc(F)cc2c1-c1nc2c3cccnc3c3ncccc3c2[nH]1, the IC50 (second compound 0.0316 µM) is reported as 27.8 nM, the IC50 (second compound 0.1 µM) is reported as 26.7 nM and the IC50 (second compound 0.316 µM) is reported as 35.2 nM. The IC50 (second compound 1 µM) was 20.5 nM, the IC50 (second compound 3.16 µM) was 3.28 nM and the IC50 (second compound 10 µM) was less than 0.999 nM. It also gave a viability, T/C [37] of 125%, a viability, T/C [38] of 79.7% and a viability, T/C [39] of 65.6%. The viability, T/C [1] was 54.4%, the viability, T/C [40] was 37.9% and the viability, T/C [3] was 29.4%. It also gave a viability, T/C [41] of 112%, a viability, T/C [42] of 99.3% and a viability, T/C [43] of 64%. It also gave a viability, T/C [7] of 49.8%, a viability, T/C [44] of 34.2% and a viability, T/C [9] of 25.5%. For the same compound, the viability, T/C [45] was 107%, the viability, T/C [46] was 83.3% and the viability, T/C [47] was 64.4%. The viability, T/C [13] was 47.9%, the viability, T/C [48] was 46.8% and the viability, T/C [15] was 26.9%. It also gave a viability, T/C [49] of 87.2%, a viability, T/C [50] of 77.6% and a viability, T/C [51] of 52.6%. It also gave a viability, T/C [19] of 47%, a viability, T/C [52] of 36.6% and a viability, T/C [21] of 25.9%. The viability, T/C [53] was 71.5%, the viability, T/C [54] was 51% and the viability, T/C [55] was 33.4%. For the same compound, the viability, T/C [25] was 25.9%, the viability, T/C [56] was 17.1% and the viability, T/C [27] was 11.8%. It also gave a viability, T/C [57] of 21.1%, a viability, T/C [58] of 29.2% and a viability, T/C [59] of 12.5%. The viability, T/C [31] was 8.86%, the viability, T/C [60] was 9.45% and the viability, T/C [33] was 8.4%.
For `Cn1ncnc1[C@H]1c2n[nH]c(=O)c3cc(F)cc(c23)N[C@@H]1c1ccc(F)cc1` + Cc1[nH]c2ccc(F)cc2c1-c1nc2c3cccnc3c3ncccc3c2[nH]1, the IC50 (second compound 0.0316 µM) was greater than 316 nM, the IC50 (second compound 0.1 µM) was greater than 316 nM and the IC50 (second compound 0.316 µM) was greater than 316 nM. It also gave an IC50 (second compound 1 µM) greater than 316 nM, an IC50 (second compound 3.16 µM) greater than 316 nM and an IC50 (second compound 10 µM) greater than 316 nM. The viability, T/C [37] was 95.8%, the viability, T/C [38] was 80.1% and the viability, T/C [39] was 96.7%. It also gave a viability, T/C [1] of 88.1%, a viability, T/C [40] of 109% and a viability, T/C [3] of 90.2%. It also gave a viability, T/C [41] of 91.8%, a viability, T/C [42] of 87.3% and a viability, T/C [43] of 101%. It also gave a viability, T/C [7] of 85.3%, a viability, T/C [44] of 93.2% and a viability, T/C [9] of 97.9%. For the same compound, the viability, T/C [45] was 95.1%, the viability, T/C [46] was 104% and the viability, T/C [47] was 81.1%. It also gave a viability, T/C [13] of 110%, a viability, T/C [48] of 90.5% and a viability, T/C [15] of 106%. For the same compound, the viability, T/C [49] was 79.3%, the viability, T/C [50] was 87.7% and the viability, T/C [51] was 80.7%. The viability, T/C [19] was 89.2%, the viability, T/C [52] was 111% and the viability, T/C [21] was 86%. It also gave a viability, T/C [53] of 67.7%, a viability, T/C [54] of 65.8% and a viability, T/C [55] of 71.8%. The viability, T/C [25] was 66.4%, the viability, T/C [56] was 86.8% and the viability, T/C [27] was 70.3%. It also gave a viability, T/C [57] of 48.9%, a viability, T/C [58] of 51.7% and a viability, T/C [59] of 57.2%. For the same compound, the viability, T/C [31] was 45%, the viability, T/C [60] was 41.1% and the viability, T/C [33] was 57.4%.
With `O=C(c1cc(Cc2n[nH]c(=O)c3ccccc23)ccc1F)N1CCN(C(=O)C2CC2)CC1` + Cc1[nH]c2ccc(F)cc2c1-c1nc2c3cccnc3c3ncccc3c2[nH]1 the IC50 (second compound 0.0316 µM) was greater than 10000 nM, the IC50 (second compound 0.1 µM) was greater than 10000 nM and the IC50 (second compound 0.316 µM) was greater than 10000 nM. It also gave an IC50 (second compound 1 µM) greater than 10000 nM, an IC50 (second compound 3.16 µM) greater than 10000 nM and an IC50 (second compound 10 µM) of 1550 nM. It also gave a viability, T/C [1] of 134%, a viability, T/C [2] of 107% and a viability, T/C [3] of 102%. It also gave a viability, T/C [4] of 122%, a viability, T/C [5] of 110% and a viability, T/C [6] of 92%. For the same compound, the viability, T/C [7] was 87.8%, the viability, T/C [8] was 98.6% and the viability, T/C [9] was 99.2%. It also gave a viability, T/C [10] of 99.6%, a viability, T/C [11] of 105% and a viability, T/C [12] of 89%. The viability, T/C [13] was 92.8%, the viability, T/C [14] was 115% and the viability, T/C [15] was 101%. It also gave a viability, T/C [16] of 107%, a viability, T/C [17] of 97.1% and a viability, T/C [18] of 97%. It also gave a viability, T/C [19] of 101%, a viability, T/C [20] of 111% and a viability, T/C [21] of 122%. It also gave a viability, T/C [22] of 111%, a viability, T/C [23] of 110% and a viability, T/C [24] of 114%. For the same compound, the viability, T/C [25] was 75.4%, the viability, T/C [26] was 76.7% and the viability, T/C [27] was 93%. The viability, T/C [28] was 79.1%, the viability, T/C [29] was 69.8% and the viability, T/C [30] was 54.7%. It also gave a viability, T/C [31] of 58.2%, a viability, T/C [32] of 40.2% and a viability, T/C [33] of 71.9%. The viability, T/C [34] was 57.9%, the viability, T/C [35] was 38.4% and the viability, T/C [36] was 25.8%.
